Values quoted from earlier work in publication PMC6265740, “Biochemical and Anti-Triple Negative Metastatic Breast Tumor Cell Properties of Psammaplins” (Marine Drugs, 2018).

How the values were obtained:
SIRT1 = test system: SIRT1; design: method as in PMID 25445714, PMID 27537898; settings: breast tumor cells ref 36,37; cited from earlier work
MDA-MB-231 [1] = test system: MDA-MB-231; design: method as in PMID 28574600; settings: in vitro ref 38; cited from earlier work
MDA-MB-231 [2] = test system: MDA-MB-231; design: method as in PMID 28574600; settings: embryonic zebrafish, xenografts, and orthotopic tumor models ref 38; cited from earlier work

| SMILES | SIRT1 enzyme expression and activity (SIRT1) | MDA-MB-231 migration and angiogenesis (MDA-MB-231 [1]) | MDA-MB-231 metastatic potential (MDA-MB-231 [2]) |
| --- | --- | --- | --- |
| O=C(NCCSSCCNC(=O)/C(Cc1ccc(O)c(Br)c1)=N/O)/C(Cc1ccc(O)c(Br)c1)=N/O [Psammaplin A] | decreased SIRT1 enzyme expression and activity |  |  |
| C=CCSSSCC=C [Garlic diallyl trisulfide, diallyl trisulfide] |  | inhibited MDA-MB-231 migration and angiogenesis | suppress MDA-MB-231 metastatic potential |
